Assay type in all cases: cell-based
The target of assay [1] is PI3Kα (Homo sapiens, UniProt P42336). As to the kind of experiment: PI3K cellular potency assay (phospho-Akt T308 ELISA in BT474 cells). The note with it: 2 h, phospho-Akt (T308); read-out: Assay c) PI3Kα Cell IC50. The text has this:
This assay was used to measure PI3K-a inhibition in cells. PDK1 was identified as the upstream activation loop kinase of protein kinase B (Akt1), which is essential for the activation of PKB. Activation of the lipid kinase phosphoinositide 3 kinase (PI3K) is critical for the activation of PKB by PDK1.
Following ligand stimulation of receptor tyrosine kinases, PI3K is activated, which converts PIP2 to PIP3, which is bound by the PH domain of PDK1 resulting in recruitment of PDK1 to the plasma membrane where it phosphorylates AKT at Thr308 in the activation loop.
The aim of this cell-based mode of action assay is to identify compounds that inhibit PDK activity or recruitment of PDK1 to membrane by inhibiting PI3K activity. Phosphorylation of phospho-Akt (T308) in BT474c cells following treatment with compounds for 2 h is a direct measure of PDK1 and indirect measure of PI3K activity. […]
After 20 minutes, the cell lysates were transferred into ELISA plates (Greiner #781077) which had been pre-coated with an anti total-AKT antibody in PBS buffer and non-specific binding was blocked with 1% BSA in PBS containing 0.05% Tween 20. […] Plates were read using a Tecan Safire plate reader using 325 nm excitation and 420 nm emission wavelengths respectively. […]

The target in assay [2] is T1, mTOR (Homo sapiens, UniProt P42345).
T1 construct: endogenous in cells; host or cells: MDA-MB-468 cells
Nature of the assay: mTOR cellular potency assay (phospho-AKT Ser473 in MDA-MB-468 cells). The note with it: 2 hours, phospho-AKT (Ser473), protocol A or B; read-out: Assay d) mTOR Cell IC50. The procedure: The phospho-AKTser473 cell assay was performed in the MDA-MB-468 cell line, a PTEN null breast adenocarcinoma human cell line. As a consequence of the lack of PTEN, pAKT is constitutively activated which eliminates the requirement for stimulation to induce phosphorylation.
MDA-MB-468 cells were cultured in cell media composed of DMEM (Dulbecco's modified Eagle's medium #D6546)), 10% (v/v) Foetal Calf Serum and 1% (v/v) L-Glutamine. After harvesting, cells were dispensed into black, 384-well Costar plates (#3712, Corning) to give 1500 cells per well in a total volume of 40 μl cell media, and were incubated overnight at 37° C., 90% relative humidity and 5% CO2 in a rotating incubator. […]
Stained cell plates were covered with black seals, and then read on the Acumen (TTP Labtech) plate reader. The primary channel (green fluorescence, 488 nm) is used to set the intensity settings for the max/min cut off to allow for weekly variation in staining and the ‘AKT+: No of objects (No)’ data is used for the analysis. Data was analysed and IC50s were calculated using Genedata Screener® software. […]
Stained cell plates were covered with black seals, and then read on the Cell Insight imaging platform (Thermo Scientific), with a 10× objective. […] The secondary channel (Green […], BGRFR_485_20) measures pAKT staining Data was analysed and IC5os were calculated using Genedata Screener® software.

In assay [3] the target is T2, ATR (Homo sapiens, UniProt Q13535).
T2 construct: endogenous in cells; host or cells: HT29 cells (ECACC #85061109)
As to the kind of experiment: ATR cellular potency assay (pChk1 Ser345 in HT29 cells with 4NQO). The conditions noted are these: pChk1 (Ser 345); read-out: Assay b) ATR Cell IC50. From the text:
ATR is a PI 3-kinase-related kinase which phosphorylates multiple substrates on serine or threonine residues in response to DNA damage during or replication blocks. Chk1, a downstream protein kinase of ATR, plays a key role in DNA damage checkpoint control. Activation of Chk1 involves phosphorylation of Ser317 and Ser345 (the latter regarded as the preferential target for phosphorylation/activation by ATR). This was a cell based assay to measure inhibition of ATR kinase, by measuring a decrease in phosphorylation of Chk1 (Ser 345) in HT29 cells, following treatment with compound of Formula (I) and the UV mimetic 4NQO (Sigma #N8141).
HT29 cells (ECACC #85061109) were seeded into 384 well assay plates (Costar #3712) at a density of 6000 cells/well in 40 μl EMEM medium containing 1% L glutamine and 10% FBS and allowed to adhere overnight. […]
Phospho-Chk1 Ser 345 antibody (Cell Signalling Technology #2348) was diluted 150 fold in PBS containing 0.05% polysorbate/Tween and 15 μl was added to each well and incubated over night at r.t. […] After 2 h incubation at r.t., the plates were washed three times with 50 μl/well PBS, using a Biotek EL405 plate washer, and plates were then sealed with black plate seals until read. Plates were read using an ArrayScan VTI instrument, using an XF53 filter with 10× objective. […]

For assay [4], the target named is T3, ATM (Homo sapiens, UniProt Q13315).
T3 construct: endogenous in cells; host or cells: HT29 cells (ECACC #85061109)
As to the kind of experiment: ATM cellular potency assay (pATM Ser1981 in irradiated HT29 cells). The note with it: X-ray irradiation, pATM (Ser1981); read-out: Assay a) ATM Cell IC50. The text has this:
Cellular irradiation induces DNA double strand breaks and rapid intermolecular autophosphorylation of serine 1981 that causes dimer dissociation and initiates cellular ATM kinase activity. Most ATM molecules in the cell are rapidly phosphorylated on this site after doses of radiation as low as 0.5 Gy, and binding of a phosphospecific antibody is detectable after the introduction of only a few DNA double-strand breaks in the cell.
The rationale of the pATM assay is to identify inhibitors of ATM in cells. HT29 cells are incubated with test compounds for lhr prior to X-ray-irradiation. 1 h later the cells are fixed and stained for pATM (Ser1981). The fluorescence is read on the arrayscan imaging platform.
HT29 cells (ECACC #85061109) were seeded into 384 well assay plates (Costar #3712) at a density of 3500 cells/well in 40 μl EMEM medium containing 1% L glutamine and 10% FBS and allowed to adhere overnight. […]
Phospho-ATM Ser1981 antibody (Millipore #MAB3806) was diluted 10000 fold in PBS containing 0.05% polysorbate/Tween and 3% BSA and 20 μl was added to each well and incubated over night at r.t. […] After 1 h incubation at r.t., the plates were washed three times with 50 μl/well PBS, using a Biotek EL405 plate washer, and plates were sealed and kept in PBS at 4° C. until read. Plates were read using an ArrayScan VTI instrument, using an XF53 filter with 10× objective. […]

One compound from patent US20190119270A1, “N-Oxide Compound and Its Use in Treating Cancer” (AstraZeneca AB, priority 2016, published 2019) can be followed below.

T2 sequence (Q13535 whole entry): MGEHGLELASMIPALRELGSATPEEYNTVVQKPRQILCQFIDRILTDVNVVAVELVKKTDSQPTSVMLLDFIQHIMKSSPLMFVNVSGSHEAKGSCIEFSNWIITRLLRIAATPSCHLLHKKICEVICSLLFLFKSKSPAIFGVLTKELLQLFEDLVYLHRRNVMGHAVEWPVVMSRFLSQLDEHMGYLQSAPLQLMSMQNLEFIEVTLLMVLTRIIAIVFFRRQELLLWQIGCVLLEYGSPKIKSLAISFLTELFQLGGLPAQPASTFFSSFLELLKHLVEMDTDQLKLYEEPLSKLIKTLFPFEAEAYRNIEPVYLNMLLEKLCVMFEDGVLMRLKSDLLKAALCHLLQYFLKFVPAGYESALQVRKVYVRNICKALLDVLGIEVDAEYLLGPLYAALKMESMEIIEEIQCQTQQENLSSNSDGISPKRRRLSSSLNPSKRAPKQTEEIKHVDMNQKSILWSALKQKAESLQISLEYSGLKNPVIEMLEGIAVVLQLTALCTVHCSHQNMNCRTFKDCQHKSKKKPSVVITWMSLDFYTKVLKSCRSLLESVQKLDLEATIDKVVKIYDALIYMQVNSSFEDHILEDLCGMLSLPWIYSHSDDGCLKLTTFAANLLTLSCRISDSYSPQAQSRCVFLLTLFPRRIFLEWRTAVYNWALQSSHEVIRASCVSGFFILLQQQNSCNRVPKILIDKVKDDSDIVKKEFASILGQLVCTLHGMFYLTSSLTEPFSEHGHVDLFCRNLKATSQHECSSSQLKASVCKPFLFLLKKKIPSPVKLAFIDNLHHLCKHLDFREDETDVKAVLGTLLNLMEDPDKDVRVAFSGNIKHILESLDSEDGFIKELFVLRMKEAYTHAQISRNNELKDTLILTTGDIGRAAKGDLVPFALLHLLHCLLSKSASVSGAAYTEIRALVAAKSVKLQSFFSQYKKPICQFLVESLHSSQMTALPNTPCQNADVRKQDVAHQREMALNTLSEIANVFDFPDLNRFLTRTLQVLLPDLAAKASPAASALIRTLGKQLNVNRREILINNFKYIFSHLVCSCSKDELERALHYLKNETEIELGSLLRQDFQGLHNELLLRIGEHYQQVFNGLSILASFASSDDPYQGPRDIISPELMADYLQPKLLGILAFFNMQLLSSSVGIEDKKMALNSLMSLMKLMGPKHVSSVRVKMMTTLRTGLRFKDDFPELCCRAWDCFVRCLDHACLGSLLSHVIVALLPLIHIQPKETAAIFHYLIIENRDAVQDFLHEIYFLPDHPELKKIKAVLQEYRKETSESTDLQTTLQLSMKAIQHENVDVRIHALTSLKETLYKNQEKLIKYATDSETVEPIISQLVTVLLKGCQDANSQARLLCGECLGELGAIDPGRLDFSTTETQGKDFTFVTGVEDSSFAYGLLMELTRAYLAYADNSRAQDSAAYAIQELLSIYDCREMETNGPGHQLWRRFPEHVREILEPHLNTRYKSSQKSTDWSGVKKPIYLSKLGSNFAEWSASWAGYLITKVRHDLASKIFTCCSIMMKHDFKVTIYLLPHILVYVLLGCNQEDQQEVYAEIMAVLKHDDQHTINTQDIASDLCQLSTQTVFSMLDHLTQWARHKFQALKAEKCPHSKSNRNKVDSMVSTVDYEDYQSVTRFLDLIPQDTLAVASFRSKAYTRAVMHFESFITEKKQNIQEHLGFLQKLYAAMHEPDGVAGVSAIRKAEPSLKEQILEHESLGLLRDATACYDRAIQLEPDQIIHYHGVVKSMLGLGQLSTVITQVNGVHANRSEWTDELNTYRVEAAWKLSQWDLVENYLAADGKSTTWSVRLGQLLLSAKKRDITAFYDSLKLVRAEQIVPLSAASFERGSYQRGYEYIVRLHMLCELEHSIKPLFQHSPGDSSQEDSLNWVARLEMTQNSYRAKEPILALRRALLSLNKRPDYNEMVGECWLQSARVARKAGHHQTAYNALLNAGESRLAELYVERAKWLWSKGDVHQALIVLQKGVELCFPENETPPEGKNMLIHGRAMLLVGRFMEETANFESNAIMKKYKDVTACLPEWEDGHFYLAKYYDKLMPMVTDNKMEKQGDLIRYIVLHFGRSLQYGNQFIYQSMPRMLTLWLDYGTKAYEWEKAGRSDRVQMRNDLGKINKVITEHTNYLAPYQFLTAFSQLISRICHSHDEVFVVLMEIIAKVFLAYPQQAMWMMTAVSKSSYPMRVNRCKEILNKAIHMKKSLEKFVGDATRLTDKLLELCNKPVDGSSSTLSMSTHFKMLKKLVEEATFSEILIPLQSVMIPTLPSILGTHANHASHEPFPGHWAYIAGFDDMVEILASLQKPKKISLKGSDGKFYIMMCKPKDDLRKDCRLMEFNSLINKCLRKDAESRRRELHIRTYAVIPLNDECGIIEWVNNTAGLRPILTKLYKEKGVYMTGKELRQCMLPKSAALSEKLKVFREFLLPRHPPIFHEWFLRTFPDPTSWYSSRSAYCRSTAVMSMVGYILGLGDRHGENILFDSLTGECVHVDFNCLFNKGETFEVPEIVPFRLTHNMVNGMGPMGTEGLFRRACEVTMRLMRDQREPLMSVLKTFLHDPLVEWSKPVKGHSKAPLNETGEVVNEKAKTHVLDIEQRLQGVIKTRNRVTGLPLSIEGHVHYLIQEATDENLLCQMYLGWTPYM
T2 sequence (Q8WXE1 whole entry partner): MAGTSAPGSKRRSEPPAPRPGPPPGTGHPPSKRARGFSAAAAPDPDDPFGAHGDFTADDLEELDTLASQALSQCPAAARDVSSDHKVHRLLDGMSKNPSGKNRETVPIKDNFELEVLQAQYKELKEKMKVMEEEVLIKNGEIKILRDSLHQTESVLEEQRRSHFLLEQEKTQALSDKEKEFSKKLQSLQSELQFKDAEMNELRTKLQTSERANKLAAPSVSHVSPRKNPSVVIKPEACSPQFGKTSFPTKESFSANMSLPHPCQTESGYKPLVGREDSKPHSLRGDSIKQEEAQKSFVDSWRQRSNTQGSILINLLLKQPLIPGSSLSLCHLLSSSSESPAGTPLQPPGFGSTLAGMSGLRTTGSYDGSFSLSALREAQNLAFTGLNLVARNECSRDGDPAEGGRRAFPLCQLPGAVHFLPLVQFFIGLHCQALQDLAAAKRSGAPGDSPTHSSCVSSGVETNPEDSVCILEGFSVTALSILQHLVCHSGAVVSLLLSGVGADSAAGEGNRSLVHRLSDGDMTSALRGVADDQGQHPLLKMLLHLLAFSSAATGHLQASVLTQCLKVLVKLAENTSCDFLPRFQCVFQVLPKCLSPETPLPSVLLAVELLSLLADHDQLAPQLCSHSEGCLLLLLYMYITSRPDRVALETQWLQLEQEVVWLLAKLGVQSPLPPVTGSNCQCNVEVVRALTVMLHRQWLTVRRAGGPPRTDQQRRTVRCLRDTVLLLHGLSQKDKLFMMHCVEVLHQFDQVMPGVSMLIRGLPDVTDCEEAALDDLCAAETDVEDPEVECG

As a reminder, the IC50 is the point on the concentration scale where inhibition reaches its midpoint. As to `Cn1c(=O)n(C2CCOCC2)c2c3cc(-c4ccc(OCCC[N+](C)(C)[O-])nc4)ccc3ncc21` [Example 1], the IC50 is 17.8 µM in assay [1], more than 1.25 µM in assay [2], 10.3 µM in assay [3] and 0.0054 µM in assay [4].
